Patent US8674107B2, “Crystal of anti-bacterial compound” (priority 2010, dated 2014)
Structures can show the parent of a compound that is named as a salt.

Experiments:
Assay type in all cases: physicochemical
[1] = Evaluation of chemical stability (storage under dry-heat or wet-heat, HPLC); details: 2 weeks
Description: Approximately 2 mg each of various samples prepared in Example 1 was weighed into an aluminum pan for thermal analysis and stored under dry-heat (60° C., 0% RH) or wet-heat (40° C., 75% RH) conditions. One and two weeks later, each sample was collected, and the change in weight was determined. Then, the whole amount was dissolved in 20 mL of an eluent and subjected to HPLC analysis.

[2] = Evaluation of solubility in test solutions (HPLC); details: for Concentration: 37° C., total of 30 minutes
Description: The monohydrochloride dihydrate prepared in Example 1 and the free form (anhydrous form) were used in the following evaluation of solubility: an appropriate amount of each sample was added to 2 mL each of the test solutions (water, the JP 1st fluid for the disintegration test (JP1), and the JP 2nd fluid for the disintegration test (JP2)), fasted state simulated intestinal fluid (FaSSIF), and fed state simulated intestinal fluid (FeSSIF), and incubated in a thermobath of 37° C. Each solution was shaken in a vortex mixer for 30 seconds every 5 minutes (for a total of 30 minutes). Then, the supernatant was filtered through a membrane filter (pore size: 0.45 μm). After appropriate dilution with an eluent, the diluted solution was subjected to HPLC analysis to calculate concentration.
Measurement conditions for HPLC;
Column: Waters Symmetry C18 3.5 um, 4.6×100 mm
Column temperature: 40° C.
Mobile phase: 50 mM KH2PO4-K2HPO4 (pH 7.0)/MeCN=8:2

[3] = Evaluation of moisture absorption and desorption properties (microbalance); details: 25° C.; for moisture absorption and desorption patterns: 10-90% RH; for change in weight (moisture absorption and desorption properties): measurement range 10-90% RH
Description: Of the various samples prepared in Example 1, the monohydrochloride dihydrate, monohydrochloride monohydrate, and sulfate were separately placed in quartz holders and examined for their moisture absorption and desorption behaviors using a microbalance under the following measurement conditions:
Measurement conditions for moisture absorption and desorption behavior (sample volume: approximately 10 mg, measurement range: 10-90% RH, measurement temperature: 25° C., variable: within 0.03%, varying length of time: 10 minutes, apparatus: atmospheric pressure-type automatic water vapor sorption instrument manufactured by VTI Corp.)

[4] = listed as monohydrochloride dihydrate of compound A, monohydrochloride dihydrate

In the case of `Cc1c(N2C[C@]3(N)CCC[C@]3(F)C2)c(F)cc2c(=O)c(C(=O)O)cn([C@@H]3C[C@@H]3F)c12` [Free form (anhydride), 7-[(1R,5S)-1-amino-5-fluoro-3-azabicyclo[3.3.0]octan-3-yl]-6-fluoro-1-[(1R,2S)-2-fluorocyclopropan-1-yl]-1,4-dihydro-8-methyl-4-oxoquinoline-3-carboxylic acid], the “Increase in related substances (%)” value ([1]; 40° C./75% RH) is reported as 0.01%, the “Increase in related substances (%)” value ([1]; 60° C./0% RH) is reported as 0.01% and the Concentration ([2]; Fasted state simulated intestinal fluid (FaSSIF)) is reported as 319 µg/mL. For the same compound, the Concentration ([2]; JP 2nd fluid for dissolution test) was 352 µg/mL and the Concentration ([2]; Water) was 280 µg/mL.

In the case of `Cc1c(N2C[C@]3(N)CCC[C@]3(F)C2)c(F)cc2c(=O)c(C(=O)O)cn([C@@H]3C[C@@H]3F)c12` [Monohydrochloride dihydrate, 7-[(1R,5S)-1-amino-5-fluoro-3-azabicyclo[3.3.0]octan-3-yl]-6-fluoro-1-[(1R,2S)-2-fluorocyclopropan-1-yl]-1,4-dihydro-8-methyl-4-oxoquinoline-3-carboxylic acid monohydrochloride dihydrate], the “Increase in related substances (%)” value ([1]; 60° C./0% RH, listed as monohydrochloride dihydrate of compound A, monohydrochloride dihydrate) is reported as 0.02%, the “Increase in related substances (%)” value ([1]; 60° C./0% RH, monohydrochloride dihydrate) is reported as 0.02% and the solubility at 30 min ([2]; 37 °C, thermodynamic from solid, in each of water, JP 1st fluid, JP 2nd fluid, FaSSIF and FeSSIF) is reported as at least 2000 µg/mL. The Concentration ([2]; Fasted state simulated intestinal fluid (FaSSIF), monohydrochloride dihydrate) was over 2000 µg/mL, the Concentration ([2]; Fed state simulated intestinal fluid (FeSSIF)) was over 2000 µg/mL and the Concentration ([2]; JP 1st fluid for dissolution test) was over 2000 µg/mL. For the same compound, the Concentration ([2]; JP 2nd fluid for dissolution test, monohydrochloride dihydrate) was over 2000 µg/mL, the Concentration ([2]; Water, monohydrochloride dihydrate) was over 2000 µg/mL and the “moisture absorption and desorption patterns” value [3, 4] was “well consistent”. For the same compound, the “moisture absorption and desorption patterns” value ([3]; monohydrochloride dihydrate) was “well consistent” and the “change in weight (moisture absorption and desorption properties)” value [3, 4] was at most 2%.

With `Cc1c(N2C[C@]3(N)CCC[C@]3(F)C2)c(F)cc2c(=O)c(C(=O)O)cn([C@@H]3C[C@@H]3F)c12` [monohydrochloride monohydrate] the “moisture absorption and desorption patterns” value ([3]; monohydrate) was “substantially the same” and the “change in weight (moisture absorption and desorption properties)” value ([3]; monohydrate) was at most 1%.

For `Cc1c(N2C[C@]3(N)CCC[C@]3(F)C2)c(F)cc2c(=O)c(C(=O)O)cn([C@@H]3C[C@@H]3F)c12` [sulfate of compound A], the “moisture absorption and desorption patterns” value [3] was “well consistent”, the “change in weight (moisture absorption and desorption properties)” value [3] was at most 2% and the “change in weight (moisture absorption and desorption behaviors)” value ([3]; relative humidity of 40% to 60%) was at most 2%.
